Measured values as given in patent US20230192705A1, “SHP2 INHIBITORS, COMPOSITIONS AND USES THEREOF” (Betta Pharmaceuticals Co., Ltd, priority 2020, published 2023).

Molecular target: T1, SHP2 (Homo sapiens, UniProt Q06124)
T1 sequence (Q06124 1-593): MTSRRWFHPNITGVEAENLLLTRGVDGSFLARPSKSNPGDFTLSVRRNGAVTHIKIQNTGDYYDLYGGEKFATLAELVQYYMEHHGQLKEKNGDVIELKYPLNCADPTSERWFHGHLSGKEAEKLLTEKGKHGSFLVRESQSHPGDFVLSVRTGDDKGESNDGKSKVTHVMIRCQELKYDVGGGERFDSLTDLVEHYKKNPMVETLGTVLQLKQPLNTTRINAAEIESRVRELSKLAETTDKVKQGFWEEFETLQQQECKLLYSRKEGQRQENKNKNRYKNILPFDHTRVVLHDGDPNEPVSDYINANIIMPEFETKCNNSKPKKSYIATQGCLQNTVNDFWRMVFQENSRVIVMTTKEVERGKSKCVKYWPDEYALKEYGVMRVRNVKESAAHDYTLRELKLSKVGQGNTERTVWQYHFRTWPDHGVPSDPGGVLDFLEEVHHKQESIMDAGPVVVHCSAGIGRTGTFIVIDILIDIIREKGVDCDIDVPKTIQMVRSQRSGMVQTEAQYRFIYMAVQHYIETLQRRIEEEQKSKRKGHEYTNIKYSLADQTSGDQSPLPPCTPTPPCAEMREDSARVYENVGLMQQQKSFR
Experiment: SHP2 allosteric inhibitor enzyme activity assay (DiFMUP fluorescence)
Format: biochemical
Details: class symbols
Outline: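 SHP2 activated by 0.5 μM IRS1_pY1172(dPEG8)pY1222 peptide, 0.2 ng enzyme per well, 1 h at room temperature with compound (1 μM top, 3-fold series), then DiFMUP substrate 1 h. Buffer: 60 mM HEPES, 75 mM NaCl, 75 mM KCl, 0.05% BRIJ-35, 1 mM EDTA, 5 mM DTT. Fluorescence ex 340/em 450 nm; IC50 by variable-slope fit.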

Row | SMILES | IC50 [nM]
1 | NC1c2ccccc2CC12CCN(c1nc3[nH]nc(C4=CCCn5ccnc54)c3c(=O)[nH]1)CC2 (stereo not drawn) [Example 128] | ≤ 20
2 | N[C@@H]1c2ccccc2CC12CCN(c1nc3[nH]nc(C4(c5ccnc(-c6ccccn6)c5)CC4)c3c(=O)[nH]1)CC2 [Example 87, (S)-3-(1-([2,2′-bipyridin]-4-yl)cyclopropyl)-6-(1-amino-1,3-dihydrospiro[indene-2,4′-piperidin]-1′-yl)-1,5-dihydro-4H-pyrazolo[3,4-d]pyrimidin-4-one] | ≤ 20
3 | N[C@@H]1c2ccccc2CC12CCN(c1nc3[nH]nc(C4(c5ccnc(CN6CCCC6)c5)CC4)c3c(=O)[nH]1)CC2 [Example 55, (S)-6-(1-amino-1,3-dihydrospiro[indene-2,4′-piperidin]-1′-yl)-3-(1-(2-(pyrrolidin-1-ylmethyl)pyridin-4-yl)cyclopropyl)-1,5-dihydro-4H-pyrazolo[3,4-d]pyrimidin-4-one] | 20 to 60
4 | Cn1ncc2c1CCC=C2c1n[nH]c2nc(N3CCC4(CC3)Cc3ccccc3[C@H]4N)[nH]c(=O)c12 [Example 131, (S)-6-(1-amino-1,3-dihydrospiro[indene-2,4′-piperidin]-1′-yl)-3-(1-methyl-6,7-dihydro-1H-indazol-4-yl)-1,5-dihydro-4H-pyrazolo[3,4-d]pyrimidin-4-one] | ≤ 20
5 | N[C@@H]1c2ccccc2CC12CCN(c1nc3[nH]nc(C4=CCCc5ccccc54)c3c(=O)[nH]1)CC2 [Example 111, (S)-6-(1-amino-1,3-dihydrospiro[indene-2,4′-piperidin]-1′-yl)-3-(3,4-dihydronaphthalen-1-yl)-1,5-dihydro-4H-pyrazolo[3,4-d]pyrimidin-4-one] | ≤ 20
6 | N[C@@H]1c2ccccc2CC12CCN(c1nc3[nH]nc(C4(c5cccc(C6CCOCC6)c5)CC4)c3c(=O)[nH]1)CC2 [Example 40, (S)-6-(1-amino-1,3-dihydrospiro[indene-2,4′-piperidin]-1′-yl)-3-(1-(3-(tetrahydro-2H-pyran-4-yl)phenyl)cyclopropyl)-1,5-dihydro-4H-pyrazolo[3,4-d]pyrimidin-4-one] | ≤ 20
7 | CC1(C)C=C(c2n[nH]c3nc(N4CCC5(CC4)Cc4ccccc4[C@H]5N)[nH]c(=O)c23)c2ccc(C#N)nc2C1 [Example 162, (S)-5-(6-(1-amino-1,3-dihydrospiro[indene-2,4′-piperidin]-1′-yl)-4-oxo-4,5-dihydro-1H-pyrazolo[3,4-d]pyrimidin-3-yl)-7,7-dimethyl-7,8-dihydroquinoline-2-carbonitrile] | ≤ 20
8 | N[C@@H]1c2ccccc2CC12CCN(c1nc3[nH]nc(C4(c5ccnc(NC6CC6)c5Cl)CC4)c3c(=O)[nH]1)CC2 [Example 72, (S)-6-(1-amino-1,3-dihydrospiro[indene-2,4′-piperidin]-1′-yl)-3-(1-(3-chloro-2-(cyclopropylamino)pyridin-4-yl)cyclopropyl)-1,5-dihydro-4H-pyrazolo[3,4-d]pyrimidin-4-one] | ≤ 20
9 | N[C@@H]1c2ccccc2CC12CCN(c1nc3[nH]nc([C@H]4C[C@H]4c4ccccc4)c3c3nncn13)CC2 [Example 107, (S)-1′-(9-((1S,2R)-2-phenylcyclopropyl)-7H-pyrazolo[4,3-e][1,2,4]triazolo[4,3-c]pyrimidin-5-yl)-1,3-dihydrospiro[indene-2,4′-piperidin]-1-amine] | 20 to 60
10 | N[C@@H]1c2ccccc2CC12CCN(c1nc3[nH]nc(C4(c5ccc(F)c(F)c5)CC4)c3c(=O)[nH]1)CC2 [Example 20, (S)-6-(1-amino-1,3-dihydrospiro[indene-2,4′-piperidin]-1′-yl)-3-(1-(3,4-difluorophenyl)cyclopropyl)-1,5-dihydro-4H-pyrazolo[3,4-d]pyrimidin-4-one] | ≤ 20
11 | N[C@@H]1c2ccccc2CC12CCN(c1nc3[nH]nc(C4(c5ccnc(N6CCOCC6)c5Cl)CC4)c3c(=O)[nH]1)CC2 [Example 65, (S)-6-(1-amino-1,3-dihydrospiro[indene-2,4′-piperidin]-1′-yl)-3-(1-(3-chloro-2-morpholinopyridin-4-yl)cyclopropyl)-1,5-dihydro-4H-pyrazolo[3,4-d]pyrimidin-4-one] | 20 to 60
12 | N[C@@H]1c2ccccc2CC12CCN(c1nc3[nH]nc(C4(c5ccc6nccnc6c5)CC4)c3c(=O)[nH]1)CC2 [Example 32, (S)-6-(1-amino-1,3-dihydrospiro[indene-2,4′-piperidin]-1′-yl)-3-(1-(quinoxalin-6-yl)cyclopropyl)-1,5-diliydro-4H-pyrazolo[3,4-d]pyrimidin-4-one] | 20 to 60

The next lines start with the values.

Row | IC50 [nM] | SMILES
13 | > 60 | C[C@@H]1OCC2(CCN(c3ncc(C4(c5ccccc5)CC4)c(=O)[nH]3)CC2)[C@@H]1N [Example 262, 2-((3S,4S)-4-amino-3-methyl-2-oxa-8-azaspiro[4.5]decan-8-yl)-5-(1-phenylcyclopropyl)pyrimidin-4(3H)-one]
14 | ≤ 20 | N[C@@H]1c2ccccc2CC12CCN(c1nc3[nH]nc(C4(c5cccc(OC(F)F)c5)CC4)c3c(=O)[nH]1)CC2 [Example 52, (S)-6-(1-amino-1,3-dihydrospiro[indene-2,4′-piperidin]-1′-yl)-3-(1-(3-(difluoromethoxy)plienyl)cyclo-propyl)-1,5-dihydro-4H-pyrazolo[3,4-d]pyrimidin-4-one]
15 | 20 to 60 | Cc1ccccc1C1(c2n[nH]c3nc(N4CCC5(CC4)CO[C@@H](C)[C@H]5N)[nH]c(=O)c23)CC1 [Example 302, 6-((3S,4S)-4-amino-3-methyl-2-oxa-8-azaspiro[4.5]decan-8-yl)-3-(1-(o-tolyl)cyclopropyl)-1,5-dihydro-4H-pyrazolo[3,4-d]pyrimidin-4-one]
16 | ≤ 20 | N[C@@H]1c2ccccc2CC12CCN(c1nc3[nH]nc(C4(c5cnccn5)CC4)c3c(=O)[nH]1)CC2 [Example 51, (S)-6-(1-amino-1,3-dihydrospiro[indene-2,4′-piperidin]-1′-yl)-3-(1-(pyrazin-2-yl)cyclopropyl)-1,5-dihydro-4H-pyrazolo[3,4-d]pyrimidin-4-one]
17 | ≤ 20 | Nc1nccc(C2(c3n[nH]c4nc(N5CCC6(CC5)Cc5ccccc5[C@H]6N)[nH]c(=O)c34)CC2)c1Cl [Example 46, (S)-6-(1-amino-1,3-dihydrospiro[indene-2,4′-piperidin]-1′-yl)-3-(1-(2-amino-3-chloropyridin-4-yl)cyclopropyl)-1,5-dihydro-4H-pyrazolo[3,4-d]pyrimidin-4-one]
18 | ≤ 20 | COCCOc1cccc(C2(c3n[nH]c4nc(N5CCC6(CC5)Cc5ccccc5[C@H]6N)[nH]c(=O)c34)CC2)c1 [Example 44, (S)-6-(1-amino-1,3-dihydrospiro[indene-2,4′-piperidin]-1′-yl)-3-(1-(3-(2-methoxyethoxy)phenyl)cycloprop-yl)-1,5-dihydro-4H-pyrazolo[3,4-d]pyrimidin-4-one]
19 | ≤ 20 | COc1cccc(C2(c3n[nH]c4nc(N5CCC6(CC5)Cc5ccccc5[C@H]6N)[nH]c(=O)c34)CCC2)c1 [Example 95, (S)-6-(1-amino-1,3-dihydrospiro[indene-2,4′-piperidin]-1′-yl)-3-(1-(3-methoxyphenyl)cyclobutyl)-1,5-dihydro-4H-pyrazolo[3,4-d]pyrimidin-4-one]
20 | 20 to 60 | C[C@@H]1OCC2(CCN(c3nc4[nH]nc(C5(c6nc7ccccc7o6)CC5)c4c(=O)[nH]3)CC2)[C@@H]1N [Example 284, 6-((3S,4S)-4-amino-3-methyl-2-oxa-8-azaspiro[4.5]decan-8-yl)-3-(1-(benzo[d]oxazol-2-yl)cyclopropyl)-1,5-dihydro-4H-pyrazolo[3,4-d]pyrimidin-4-one]
21 | > 60 | N[C@@H]1COCC12CCN(c1nc3[nH]nc(C4(c5nc6ccccc6[nH]5)CC4)c3c(=O)[nH]1)CC2 [Example 283, (S)-3-(1-(1H-benzo[d]imidazol-2-yl)cyclopropyl)-6-(4-amino-2-oxa-8-azaspiro[4.5]decan-8-yl)-1,5-dihydro-4H-pyrazolo[3,4-d]pyrimidin-4-one]
22 | 20 to 60 | C[C@@H]1OCC2(CCN(c3nc4[nH]nc(C5(c6cccc(F)c6)CC5)c4c(=O)[nH]3)CC2)[C@@H]1N [Example 293, 6-((3S,4S)-4-amino-3-methyl-2-oxa-8-azaspiro[4.5]decan-8-yl)-3-(1-(3-fluorophenyl)cyclopropyl)-1,5-dihydro-4H-pyrazolo[3,4-d]pyrimidin-4-one]
23 | ≤ 20 | Cn1cc(-c2cccc(C3(c4n[nH]c5nc(N6CCC7(CC6)Cc6ccccc6[C@H]7N)[nH]c(=O)c45)CC3)c2)cn1 [Example 36, (S)-6-(1-amino-1,3-dihydrospiro[indene-2,4′-piperidin]-1′-yl)-3-(1-(3-(1-methyl-1H-pyrazol-4-yl)phenyl)cyclopropyl)-1,5-dihydro-4H-pyrazolo[3,4-d]pyrimidin-4-one]
24 | ≤ 20 | N#Cc1ccc2c(c1)[C@@H](N)C1(CCN(c3nc4[nH]nc(C5(c6ccccc6)CC5)c4c(=O)[nH]3)CC1)C2 [Example 197, (S)-1-amino-1′-(4-oxo-3-(1-phenylcyclopropyl)-4,5-dihydro-1H-pyrazolo[3,4-d]pyrimidin-6-yl)-1,3-dihydrospiro[indene-2,4′-piperidine]-6-carbonitrile]
